Source: ChEMBL document CHEMBL3039007, “Structure-based identification of OATP1B1/3 inhibitors” (Mol Pharmacol, 2013)
Counter-ions that a name gives are not always drawn. Residues, ends and D or L forms follow the SMILES beside them. *: point of attachment. Tfa = O=C(C(F)(F)F)*

What was measured:
[1] = molecular target: T1, Solute carrier organic anion transporter family member 1B3 (Homo sapiens, UniProt Q9NPD5); conditions: chinese hamster, cho, 10 µM
T1 sequence (Q9NPD5 whole entry): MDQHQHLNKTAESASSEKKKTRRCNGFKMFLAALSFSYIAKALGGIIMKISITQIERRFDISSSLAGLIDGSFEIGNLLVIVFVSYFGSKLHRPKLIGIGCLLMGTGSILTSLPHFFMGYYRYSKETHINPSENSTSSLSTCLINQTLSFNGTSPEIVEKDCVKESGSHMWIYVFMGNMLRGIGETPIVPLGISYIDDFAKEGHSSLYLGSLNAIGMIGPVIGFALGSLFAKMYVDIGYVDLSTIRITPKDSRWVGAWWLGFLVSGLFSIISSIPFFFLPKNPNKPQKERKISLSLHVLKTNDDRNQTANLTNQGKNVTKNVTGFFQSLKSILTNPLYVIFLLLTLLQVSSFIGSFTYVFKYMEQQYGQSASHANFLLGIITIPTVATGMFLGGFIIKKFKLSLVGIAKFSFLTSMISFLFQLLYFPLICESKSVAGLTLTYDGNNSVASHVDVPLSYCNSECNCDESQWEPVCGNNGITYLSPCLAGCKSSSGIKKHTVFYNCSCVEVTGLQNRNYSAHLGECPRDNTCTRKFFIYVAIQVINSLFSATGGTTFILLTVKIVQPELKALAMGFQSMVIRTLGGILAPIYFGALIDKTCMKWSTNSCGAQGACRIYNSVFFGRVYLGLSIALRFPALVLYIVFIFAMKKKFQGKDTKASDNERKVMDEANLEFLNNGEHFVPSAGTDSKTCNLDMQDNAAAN

[2] = molecular target: T2, Solute carrier organic anion transporter family member 1B1 (Homo sapiens, UniProt Q9Y6L6); conditions: chinese hamster, cho, 10 µM
T2 sequence (Q9Y6L6 whole entry): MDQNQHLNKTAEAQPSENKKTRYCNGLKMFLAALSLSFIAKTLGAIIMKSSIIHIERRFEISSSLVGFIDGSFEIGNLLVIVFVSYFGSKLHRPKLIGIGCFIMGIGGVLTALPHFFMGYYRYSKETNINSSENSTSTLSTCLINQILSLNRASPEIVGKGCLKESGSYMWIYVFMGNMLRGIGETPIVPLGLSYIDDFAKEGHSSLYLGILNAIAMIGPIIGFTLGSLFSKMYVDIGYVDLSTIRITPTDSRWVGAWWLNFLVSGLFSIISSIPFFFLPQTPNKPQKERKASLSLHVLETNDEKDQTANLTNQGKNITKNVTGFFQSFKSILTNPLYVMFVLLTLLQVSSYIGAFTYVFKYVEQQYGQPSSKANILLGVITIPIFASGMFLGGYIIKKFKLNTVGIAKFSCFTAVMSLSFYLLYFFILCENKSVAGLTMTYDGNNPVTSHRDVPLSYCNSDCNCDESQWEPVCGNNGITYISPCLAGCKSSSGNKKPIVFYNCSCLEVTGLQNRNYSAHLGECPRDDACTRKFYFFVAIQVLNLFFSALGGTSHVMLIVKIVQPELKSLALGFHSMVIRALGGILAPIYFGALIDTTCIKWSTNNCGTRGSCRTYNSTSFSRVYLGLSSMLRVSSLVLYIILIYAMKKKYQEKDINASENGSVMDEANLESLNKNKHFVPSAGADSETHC

residual activity [1] [%]	residual activity [2] [%]	Compound
86.79	81.82	NS(=O)(=O)c1cc2c(cc1Cl)NC(C(Cl)Cl)NS2(=O)=O (configuration not stated) [TRICHLORMETHIAZIDE]
84.35	64.99	O=c1[nH]c(=O)n([C@H]2C[C@H](O)[C@@H](CO)O2)cc1C(F)(F)F [TRIFLURIDINE]
140.2	111	COc1cc(C(=O)NCc2ccc(OCCN(C)C)cc2)cc(OC)c1OC.Cl [TRIMETHOBENZAMIDE HYDROCHLORIDE]
97.26	82.92	COc1cc(Cc2cnc(N)nc2N)cc(OC)c1OC [TRIMETHOPRIM]
86.89	103.1	Cc1cc2cc3c(C)cc(=O)oc3c(C)c2o1 [TRIOXSALEN]
93.75	81.25	CN(C)CCN(Cc1ccccc1)c1ccccn1.O=C(O)CC(O)(CC(=O)O)C(=O)O [TRIPELENNAMINE CITRATE]
81.94	75.11	CCN(Cc1ccncc1)C(=O)C(CO)c1ccccc1 (configuration not stated) [TROPICAMIDE]
49.51	61.9	C[C@@H]1O[C@@H](OC[C@H]2O[C@@H](Oc3c(-c4ccc(OCCO)c(OCCO)c4)oc4cc(OCCO)cc(O)c4c3=O)[C@H](O)[C@@H](O)[C@@H]2O)[C@H](O)[C@H](O)[C@H]1O [TROXERUTIN]
97.09	93.19	N[C@@H](Cc1c[nH]c2ccccc12)C(=O)O [TRYPTOPHAN]
80.8	158.2	C=C(C)C1Cc2c(ccc(C(=O)O)c2O)O1 (configuration not stated) [TUBAIC ACID]
96.81	108	CC(C)[C@H](NC(=O)[C@H](Cc1ccc(O)cc1)NC(=O)[C@@H](NC(=O)C(F)(F)F)C(C)C)C(=O)O [Tfa-VAL-TYR-VAL-OH] (Tfa-Val-Tyr-Val-OH)
137.7	118.6	COC1=C(OC)C(=O)C(C/C=C(\C)CC/C=C(\C)CC/C=C(\C)CC/C=C(\C)CC/C=C(\C)CC/C=C(\C)CC/C=C(\C)CC/C=C(\C)CC/C=C(\C)CCC=C(C)C)=C(C)C1=O [UBIDECARENONE]
76.49	26.71	O=c1ccc2ccc(O)cc2o1 [UMBELLIFERONE]
105.9	87.46	NC(N)=O [UREA]
105.2	116	COc1ccc(C(=O)CC(=O)O)c2c1C=CC(C)(C)O2 [URSINOIC ACID]
107.5	121.5	C[C@H]1[C@H](C)CC[C@]2(CO)CC[C@]3(C)C(=CC[C@@H]4[C@@]5(C)CC[C@H](O)C(C)(C)[C@@H]5CC[C@]43C)[C@H]12 [UVAOL]
80.91	68.57	CC(C)[C@H](N)C(=O)OCCOCn1cnc2c(=O)[nH]c(N)nc21.Cl [VALACYCLOVIR HYDROCHLORIDE]
94.41	120.4	Cc1onc(-c2ccccc2)c1-c1ccc(S(N)(=O)=O)cc1 [VALDECOXIB]
92.91	78.97	CCCCC(=O)Oc1ccccc1C(=O)O [VALERYL SALYCILATE]
102.8	100.2	CC(C)[C@H](N)C(=O)N[C@@H](Cc1c[nH]c2ccccc12)C(=O)O [VALYLTRYPTOPHAN] (H-Val-Trp-OH)
94.41	78.69	C=CC(N)CCC(=O)O (configuration not stated) [VIGABATRIN]
115.3	97.38	CC[C@]12CCCN3CCc4c(n(c5ccccc45)C(=O)C1)[C@@H]32 [VINBURNINE]
88.88	72.87	CC[C@]12CCCN3CCc4c(n(c5ccccc45)[C@@](O)(C(=O)OC)C1)[C@@H]32 [VINCAMINE]
109.4	167.7	CCOC(=O)C1=C[C@]2(CC)CCCN3CCc4c(n1c1ccccc41)[C@@H]32 [VINPOCETINE]
47.88	27.49	COc1cc(C/C=C/c2ccccc2)c(OC)cc1O [VIOLASTYRENE]
98.15	127.2	COc1c2ccoc2cc2oc(C)cc(=O)c12 [VISNAGIN]
85.92	77.04	CCCCCCCCCCCCCCCC(=O)OC/C=C(C)/C=C/C=C(C)/C=C/C1=C(C)CCCC1(C)C [VITAMIN A PALMITATE]
83.34	57.14	COC(=O)/C(=C1/OC(=O)C(c2ccccc2)=C1O)c1ccccc1 [VULPINIC ACID]

Compound	residual activity [1] [%]	residual activity [2] [%]
CCCN(CCC)c1c([N+](=O)[O-])cc(C(F)(F)F)cc1[N+](=O)[O-] [TRIFLURALIN]	102.7	93.6
C[n+]1cccc(C(=O)[O-])c1 [TRIGONELLINE]	98.34	111.6
CC(CN(C)C)CN1c2ccccc2CCc2ccccc21.O=C(O)/C=C\C(=O)O (configuration not stated) [TRIMIPRAMINE MALEATE]	103.3	93.52
CC(C)[C@]12O[C@H]1[C@@H]1O[C@@]13[C@@]1(C)CCC4=C(COC4=O)[C@@H]1C[C@@H]1O[C@@]13C2=O [TRIPTONIDE]	84.23	74.69
CC(C)c1ccc2c(c1O)CC[C@H]1C3=C(CC[C@]21C)C(=O)OC3 [TRIPTOPHENOLIDE]	110.8	120.3
NCCc1c[nH]c2ccccc12 [TRYPTAMINE]	104.1	101
c1ccc2c3c([nH]c2c1)CNCC3 [TRYPTOLINE]	98.72	99.4
NCCc1ccc(O)cc1 [TYRAMINE]	85.38	59.9
C[C@H](CCC(=O)O)[C@H]1CC[C@H]2[C@@H]3CC[C@@H]4CCCC[C@]4(C)[C@H]3CC[C@]12C [URSOCHOLANIC ACID]	102.7	98.45
C[C@H](CCC(=O)O)[C@H]1CC[C@H]2[C@@H]3[C@@H](O)C[C@@H]4C[C@H](O)CC[C@]4(C)[C@H]3CC[C@]12C [URSODIOL]	149.7	70.93
CCCC(CCC)C(=O)[O-].[Na+] [VALPROATE SODIUM]	125.1	90.61
CN[C@H](CC(C)C)C(=O)N[C@H]1C(=O)N[C@@H](CC(N)=O)C(=O)N[C@H]2C(=O)N[C@H]3C(=O)N[C@H](C(=O)N[C@H](C(=O)O)c4cc(O)cc(O)c4-c4cc3ccc4O)[C@H](O)c3ccc(c(Cl)c3)Oc3cc2cc(c3O[C@@H]2O[C@H](CO)[C@@H](O)[C@H](O)[C@H]2O[C@H]2C[C@](C)(N)[C@H](O)[C@H](C)O2)Oc2ccc(cc2Cl)[C@H]1O.Cl [VANCOMYCIN HYDROCHLORIDE]	103.2	99.99
Nc1c2c(nc3ccccc13)CCCC2O.O=C(O)/C=C\C(=O)O (configuration not stated) [VELNACRINE MALEATE]	96.75	103.3
COc1ccc(C(=O)O)cc1OC [VERATRIC ACID]	106.9	111.3
COc1ccc(C(=O)O[C@H]2CC[C@@]3(C)[C@@H]4CC[C@H]5[C@]6(O)C[C@H](O)[C@@]7(O)[C@@H](CN8C[C@@H](C)CC[C@H]8[C@@]7(C)O)[C@]6(O)C[C@@]53O[C@]24O)cc1OC [VERATRIDINE]	133.7	82.28
Cl.OC1CCCCC1N1CCC(c2ccccc2)CC1 (configuration not stated) [VESAMICOL HYDROCHLORIDE]	101.2	64.34
CC(=O)CC(c1ccccc1)c1c(O)c2ccccc2oc1=O (configuration not stated) [WARFARIN]	66.67	122.2
O=c1c2ccccc2oc2ccccc12 [XANTHONE]	131.5	123.7
